How the values were obtained:
[1] = test system: allodynia induced by ligature of the sciatic nerve in rats; assay: Ligature of the sciatic nerve in rats (allodynia, von Frey); format: in vivo; details: one hour after administration, vs vehicle
Description: Male CD rats weighing 200-250 g on arrival were used.
The allodynia was induced by ligature under anaesthesia of the sciatic nerve of the left hind leg [Seltzer Z, Dubner R, Shir Y. A novel behavioural model of neuropathic pain disorders produced in rats by partial sciatic nerve injury. Pain 1990; 43: 205-218; Bennet G J, Xie Y K. A peripheral mononeuropathy in rat that produces disorders of pain sensation like those seen in man. Pain 1988; 33: 87-107].
The pain threshold was measured with a von Frey machine, which makes it possible, by applying a gradual increase in pressure to the paw of the left hind leg of the rat, to record the nociceptive response, expressed in grams, corresponding to the moment at which the animal withdraws the leg.
After-treatment measurement was made at one hour following administration. The analgesic activity is evaluated as % reversal.

[2] = test system: acetic acid-induced writhing in mice; assay: Acetic acid-induced writhing test in mice; details: vs vehicle
Description: (§1) The test compounds were evaluated in the model of acetic acid-induced writhing in mice (Stock J. L. et al., J. Clin. Inv. 2001, 107: 325 331).
(§2) Writhing test is a chemical method used to induce pain of peripheral origin by injection of acetic acid in mice. Analgesic activity is inferred from decrease in the frequency of writhing.
(§3) This test allowed evaluation of the antinociceptive activity of the compounds of the invention in a model of inflammatory pain.
(§4) Writhing is defined as a stretch, tension to one side, extension of hind legs, contraction of the abdomen so that the abdomen of mice touches the floor, turning the trunk (twist).
(§5) Male CD-1 mice weighing 20-25 g were used for the test.
(§6) One hour after the treatment, an intraperitoneal injection of acetic acid (0.7% v/v in physiological saline, 16 μl/g of body weight) was given to the mice to induce inflammatory pain and to check the effects of the test compound on the nociceptive response.
(§7) Five minutes after the administration of acetic acid and for the following 10 minutes the number of writhes was measured, which represents the parameter for evaluation of the nociceptive response. The analgesic activity is evaluated as % inhibition.

[3] = test system: acetic acid-induced writhing in mice; details: mouse, in vivo, po
Description: as §1, §2, §3, §4, §5, §6, §7

Compound: NCC1(CC(=O)O)CCCCC1 [Gabapentin, gabapentin]
- Reversal % ([1]; 3.0 mg/kg): 3.7%
- Reversal % ([1]; 100 mg/kg (effective amount)): 37.0%
- Writhing number reduction % ([2]; Table 2 TEST 1 (FIG. 2a), 1.5 mg/kg oral): 27.1%
- Writhing number reduction % ([2]; Table 2 TEST 2 (FIG. 2b), 5 mg/kg oral): 38.1%
- Writhing number reduction % ([2]; Table 2 TEST 3 (FIG. 2c), 15 mg/kg oral): 45.9%
- Writhing number reduction % ([2]; Table 3 TEST 1 RATIO 1:20, 1.5 mg/kg oral): 29.2%
- Writhing number reduction % ([2]; Table 3 TEST 2 RATIO 1:10, 1.5 mg/kg oral): 27.1%
- Writhing number reduction % ([2]; Table 3 TEST 3 RATIO 1:5, 0.75 mg/kg oral): 22.4%
- Writhing number reduction % ([2]; Table 3 TEST 4 RATIO 1:1, 0.15 mg/kg gabapentin oral): 28.3%
- Writhing number reduction % ([2]; Table 3 TEST 5 RATIO 5:1, 0.15 mg/kg oral): 30.2%
- Writhing number reduction % ([2]; Table 3 TEST 6 RATIO 10:1, 0.15 mg/kg oral): 27.2%

Compound: O=c1n(CCCN2CCN(c3cccc(Cl)c3)CC2)nc2ccccn12 [Trazodone, trazodone]
- Reversal % ([1]; 0.3 mg/kg): 3.1%
- ED50 [3]: 1.2 mg/kg
- Writhing number reduction % ([2]; Table 2 TEST 1 (FIG. 2a), 0.15 mg/kg oral): 16.0%
- Writhing number reduction % ([2]; Table 2 TEST 2 (FIG. 2b), 0.5 mg/kg oral): 44.4%
- Writhing number reduction % ([2]; Table 2 TEST 3 (FIG. 2c), 1.5 mg/kg oral): 57.1%
- Writhing number reduction % ([2]; Table 3 TEST 1 RATIO 1:20, 0.075 mg/kg oral): 2.1%
- Writhing number reduction % ([2]; Table 3 TEST 2 RATIO 1:10, 0.15 mg/kg oral): 16.0%
- Writhing number reduction % ([2]; Table 3 TEST 3 RATIO 1:5, 0.15 mg/kg oral): 16.3%
- Writhing number reduction % ([2]; Table 3 TEST 4 RATIO 1:1, 0.15 mg/kg trazodone oral): 12.2%
- Writhing number reduction % ([2]; Table 3 TEST 5 RATIO 5:1, 0.75 mg/kg oral): 57.4%
- Writhing number reduction % ([2]; Table 3 TEST 6 RATIO 10:1, 1.5 mg/kg oral): 59.7%
